“Also recorded” adds a separate entry of the source.
Legend:
[1] = tested on: ApoE promoter; experiment: ApoE promoter luciferase reporter assay in Huh-7 cells; format: cell-based, human; conditions: for luciferase activity of ApoE promoter: Huh-7, serial truncations of ApoE promoter from -1061/+45 to -154/+45, 24 h (FIG. 3C)
Source text: The promoter region of human APOE gene has been identified and published [[…]]. We constructed ApoE promoter region from -1061 +45 in two-steps. The first fragment was amplified using polymerase chain reaction (PCR) by forward primer APOE-[…] ID NO: 1) paired with reverse primer APOE-R-BglII: [NT] ID NO: 2) and was ligated to the pGL3 basic vector (Promega, Madison, Wis., USA) by using Kpn I and Bgl II restriction sites. The second fragment was amplified using PCR by forward primer APOE-F-BglII: [NT] ID NO: 3) paired with reverse primer APOE-[…] ID NO: 4) and was ligated to the pGL3-basic (Promega) by using Bgl II and Hind III restriction sites. The serial deletion mutants of ApoE promoter, -705/+45, -456/+45, -344/+45, -247/+45, -154/+45 and -32/+45 were amplified using PCR and based on the full-length ApoE promoter (-1061/+45). The generated fragments were digested by Kpn I and Xba I and then inserted into the pGL3-basic vector (Promega). To generate the deletion mutants of ApoE promoter, primers were used to amplify the promoter for different lengths. The forward primers were APOE-705-[…] ID NO: 5), APOE-456-[…] ID NO: 6), APOE-344-[…] ID NO: 7), APOE-247-[…] ID NO: 8), APOE-154-[…] ID NO: 9), and APOE-32-[…] ID NO: 10) which were paired with reverse primer APOE-[…] ID NO: 4) to amplify the target region of the promoter. For disrupting the binding sites of PPAR and/or AP-2 on ApoE promoter, we conducted the point mutation method and the primers paired used were as follows: -154[…] ID NO: 11) paired with -154[…] ID NO: 12), -154[…] ID NO: 13) paired with -154[…] ID NO: 14), -154[…] ID NO: 15) paired with -154[…] ID NO: 16), -154[…] ID NO: 17) paired with -154[…] ID NO: 18). The pGL3-154/+45-ApoE-Luc was used as the template for PCR reaction to amplify the mutant of PPAR or AP-2 binding sites in the ApoE promoter. The PCR products were digested by Dpn I and transformed into TOP10 competent cells (Invitrogen, Carlsbad, Calif., USA). After LB plating and extraction of plasmids, positive colonies were confirmed by restriction enzyme digestion. All of the promoter constructs were verified by sequencing. The Huh-7 cells were seeded in 24-well culture plates and then co-transfected with serial deletion of pGL3-ApoE-Luc (firefly luciferase) with pRL-TK renilla luciferase reporter. Following overnight incubation, the transfected cells were treated with traditional curcumin, and TML-6 for an additional 24h. […] The relative luciferase units (RLU) were measured using a luminometer (GLOMAX Multi, Promega). […] The RLUs are expressed as means plus standard deviation of three independent experiments.

[2] = tested on: phospho-NF-κB; experiment: Western blotting of phospho-NF-κB in Huh-7 cells; format: cell-based, human; conditions: 24 h treatment, Western blotting (FIG. 1)
Description: (§1) The human hepatoma Huh-7 cell lines were obtained from the Health Science Research Resources Bank (JCRB0403; Osaka, Japan) and were cultured in Dulbecco's modified Eagle's medium (DMEM, Gibco) supplemented with 100 U/ml penicillin, […] streptomycin and 10% fetal bovine serum (FBS, Biological industry). Cells were cultured at 37° C. in a humidified atmosphere of 5% CO2 incubator (Forma Scientific, Marietta, Ohio, USA). The cells were seeded in 24-well, 6 or 10 cm dishes overnight the day before the experiment. On the next day, the cells were treated with curcumin (Sigma) and TML-6. The stock concentration was prepared at 5 mg/mL (for curcumin) and 10 mM (for TML-6).
(§2) After cells were seeded and treated with curcumin and its derivatives for 24h, cells were washed with ice-cold PBS and lysed with 100 μL of RIPA lysis buffer (Pierce Biotechnology, Rockford, Ill., USA) supplemented with protease and phosphatase inhibitors (Roche Diagnostics, Mannheim, Germany). Cell lysates were further cleaned by centrifugation at 14000 rpm 4° C. for 15 min. Protein concentration was determined using a Bradford assay (Bio-Rad, Hercules, Calif., USA). For western blot analysis, 20 μg of each sample was prepared for SDS-PAGE and denatured at 95° C. for 10 min. […]

[3] = tested on: Aβ production in N2a/APPswe cells; experiment: Amyloid β ELISA of culture medium of N2a/APPswe stable cell line; format: cell-based; conditions: 24 h incubation, ELISA (FIG. 2)
Description: Extracellular levels of soluble Aβ40 and Aβ42 were determined by LEGEND MAX™ 3-Amyloid x-40 and X-42 ELISA Kit (Biolegend). N2A neuroblastoma cell line with stably over expressing APP Swedish mutation (APPswe) was designed as N2A/APPswe cell line (kindly grafted from Prof. Kuo, Yu-Min's Lab). 8×10^5 N2A/APPswe cells were seeded on a 6-cm dish. After overnight incubation, the cells were treated with curcumin or TML-6 for 24 h. The culture supernatant was collected and centrifuged at 1,500×g at 4° C. for 5 min to remove cells. The Aβ levels of the culture supernatants of various treatments were assayed according to the manufacture's instrumentations. The samples were detected at OD620 and the calculation of Aβ levels was based on the standard curves of Aβ40 and Aβ42, respectively.

[4] = tested on: Aβ levels in the brain of 3×Tg AD transgenic mice; experiment: Aβ immunofluorescence staining of brain sections of 3×Tg-AD transgenic mice; format: in vivo; conditions: six-month-old 3×Tg AD mice fed 150 mg/kg for four months, immunofluorescence (FIG. 4)
Source text: (§3) Triple-transgenic mice as a model of Alzheimer's disease (3×Tg-AD, APP Swedish, MAPT P301L, and PSEN1 M146V) were bred at the laboratory animal center of National Cheng Kung University (NCKU) [Oddo S, Caccamo A, Shepherd J D, Murphy M P, Golde T E, Kayed R, Metherate R, Mattson M P, Akbari Y, LaFerla F M: Triple-transgenic model of Alzheimer's disease with plaques and tangles: intracellular Abeta and synaptic dysfunction. Neuron 2003, 39(3):409-421]. Experimental procedures for handling the mice were in accordance with the guidelines of the Institutional Animal Care and Use Committee (IACUC) of NCKU. The mice were housed in a room maintained on a 12-h light-dark cycle and fed ad libitum. […] These mice developed plaque and tangle pathology. Aβ deposition as progressive deposition appeared as early as six months.
(§4) Mice were anesthetized and euthanized with 10% chloral hydrate (400 mg/kg, i.p.) and then transcardial perfusion was performed with 0.01 M PBS (pH 7.4). The brains were post-fixed in 4% PFA for 2 days and dehydrated with 30% sucrose at 4° C. The hydrated brain was embedded with optimal cutting temperature compound (OCT, Leica) and quick-frozen at −30° C. The blocks were sectioned at 16 um-thick. Slices were stored at −20° C. […] The images were captured by TissureFAXS microscopy system and positive signals were quantified by TissueQuest software module (TissueGnostic, Vienne, Austria).

[5] = tested on: Iba-1 (microglial activation biomarker) in 3×Tg AD transgenic mice; experiment: Iba-1 immunofluorescence staining in 3×Tg-AD transgenic mice; format: in vivo; conditions: six-month-old 3×Tg AD mice fed 150 mg/kg for four months, compared to curcumin (FIG. 5)
Source text: as §3, §4

[6] = tested on: APP; experiment: Western blotting of APP in Huh-7 cells; format: cell-based, human; conditions: 24 h treatment, Western blotting (FIG. 1)
Description: The human hepatoma Huh-7 cell lines were obtained from the Health Science Research Resources Bank (JCRB0403; Osaka, Japan) and were cultured in Dulbecco's modified Eagle's medium (DMEM, Gibco) supplemented with 100 U/ml penicillin, 100 mg/ml streptomycin and 10% fetal bovine serum (FBS, Biological industry). Cells were cultured at 37° C. in a humidified atmosphere of 5% CO2 incubator (Forma Scientific, Marietta, Ohio, USA). The cells were seeded in 24-well, 6 or 10 cm dishes overnight the day before the experiment.
After cells were seeded and treated with curcumin and its derivatives for 24h, cells were washed with ice-cold PBS and lysed with 100 μL of RIPA lysis buffer (Pierce Biotechnology, Rockford, Ill., USA) supplemented with protease and phosphatase inhibitors (Roche Diagnostics, Mannheim, Germany). Cell lysates were further cleaned by centrifugation at 14000 rpm 4° C. for 15 min. Protein concentration was determined using a Bradford assay (Bio-Rad, Hercules, Calif., USA). For western blot analysis, 20 μg of each sample was prepared for SDS-PAGE and denatured at 95° C. for 10 min. The prepared samples from total lysates were loaded and separated by SDS-PAGE (8% or 10%), and then transferred to PVDF membranes (pore size 0.45 μm; PerkinElmer) by semi-dry transfer cell (Bio-Rad). […]

[7] = tested on: ApoE; experiment: Western blotting of ApoE in Huh-7 cells; format: cell-based, human; conditions: 24 h treatment, Western blotting (FIG. 1)
Description: as §1, §2

[8] = tested on: soluble Aβ; conditions: AD transgenic mouse, within hours, ApoE-dependent; cited from earlier work

| Structure (SMILES) | ApoE promoter activity after disruption of proximal PPARα/RXRα and AP2 binding sites ([1]; Huh-7, -154/+45 mutants MdelAP2 and MdelPPAR, 24 h (FIG. 3E)) | luciferase activity of ApoE promoter [1] | promoter activity of ApoE-154MdelAP2/+45 mutant compared with wild-type -154/+45 ([1]; Huh-7, siRNA knockdown experiment, 24 h (FIG. 3F)) | protein expression level of phospho-NF-κB [2] | Aβ42/40 ratio [3] | production of Aβ40 [3] | production of Aβ42 [3] | Aβ levels in the brain [4] | expression of Iba-1 (brain inflammation) [5] | protein expression level of APP [6] | protein expression level of Apo E [7] | clearance of soluble Aβ [8] |
| --- | --- | --- | --- | --- | --- | --- | --- | --- | --- | --- | --- | --- |
| CCN(CC)C(=O)CC(C)(C(=O)/C=C/c1ccc(OC)c(OC)c1)C(=O)/C=C/c1ccc(OC)c(OC)c1 [TML-6] | significantly suppressed | gradually increases | suppressed | decreased in a dose-dependent manner | significantly suppresses | significantly suppresses | significantly suppresses | significantly better activity than curcumin; also recorded: significantly decrease | significantly better activity than curcumin; also recorded: significantly inhibited | decreased in a dose-dependent manner | significantly increased | – |
| C=C(c1ccc(C(=O)O)cc1)c1cc2c(cc1C)C(C)(C)CCC2(C)C [bexarotene] | – | – | – | – | – | – | – | – | – | – | – | enhanced clearance |
| COc1cc(/C=C/C(=O)CC(=O)/C=C/c2ccc(O)c(OC)c2)ccc1O [curcumin, diferuloyl methane] | – | gradually increases | – | inhibit NFκB | – | – | – | – | – | inhibit the APP synthesis | upregulate ApoE | – |
